Measurements published in patent US8993757B2, “N-piperidin-4-yl derivatives” (Merck Sharp & Dohme B.V., priority 2011, dated 2015).

Target: T1, human FSH receptor (Homo sapiens, UniProt P23945)
T1 construct: expressed in transfected cells; host or cells: CHO cells, cotransfected with a CRE/promotor firefly luciferase reporter
T1 sequence (P23945 18-695): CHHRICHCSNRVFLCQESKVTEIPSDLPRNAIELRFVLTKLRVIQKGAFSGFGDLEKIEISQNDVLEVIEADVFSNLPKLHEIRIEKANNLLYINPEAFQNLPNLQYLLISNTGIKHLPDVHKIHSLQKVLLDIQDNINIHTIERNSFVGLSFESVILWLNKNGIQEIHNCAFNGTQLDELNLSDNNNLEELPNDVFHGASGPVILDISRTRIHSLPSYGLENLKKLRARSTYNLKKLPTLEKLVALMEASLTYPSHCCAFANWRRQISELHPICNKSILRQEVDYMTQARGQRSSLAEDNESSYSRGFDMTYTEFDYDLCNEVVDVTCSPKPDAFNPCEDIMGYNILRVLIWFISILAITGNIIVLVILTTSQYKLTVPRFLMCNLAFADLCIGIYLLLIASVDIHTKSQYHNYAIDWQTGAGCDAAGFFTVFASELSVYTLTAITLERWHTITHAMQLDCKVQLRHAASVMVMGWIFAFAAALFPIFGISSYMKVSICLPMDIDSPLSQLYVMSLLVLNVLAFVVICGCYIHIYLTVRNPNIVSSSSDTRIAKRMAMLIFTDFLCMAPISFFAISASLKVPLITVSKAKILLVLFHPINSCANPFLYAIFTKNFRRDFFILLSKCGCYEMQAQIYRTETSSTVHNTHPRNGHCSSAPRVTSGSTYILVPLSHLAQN
Assay: Antagonistic activity at the human FSH receptor expressed in CHO cells (CRE-luciferase reporter)
Type: cell-based
Settings: CHO cells stably transfected with human FSH receptor and CRE/firefly luciferase reporter; 4 hours incubation; read-out: pIC50 (negative logarithm of the IC50 value) (converted)
Protocol: The FSHR antagonists of the invention have pIC50 values higher than 6 in said assay. The preferred compounds of the invention have pIC50 values higher than 8.
Antagonistic activity of the compounds at the human FSH receptor was determined in Chinese Hamster Ovary (CHO) cells stably transfected with the human FSH receptor and cotransfected with a cAMP responsive element (CRE)/promotor directing the expression of a firefly luciferase reporter gene. […] The cells (7,500 cells/well of a 384 well plate) were incubated in Dulbecco′ minimal essential F12 modified medium (Invitrogen), supplemented with 1 μg/ml bovine insulin, 5 μg/ml human apo-transferrin, 100 U/ml penicillin G and 100 μg/ml streptomycin with the test compounds (concentration between 0.316 nM and 10.0 μM) in duplicate together with […] (which, at this concentration in the absence of test compound, induces 80% of the maximal luciferase stimulation) in a humidified atmosphere (95%) at 5-7% CO2 and 37° C. The final concentration of DMSO was 1%. After 4 hours of incubation, plates were allowed to adjust to room temperature for 1 hour. Then, SteadyLite (Perkin Elmer) solution was added to the wells and cells were allowed to lyse for at least 1 hour at room temperature. Subsequently, luciferase activity was measured in a luminescence counter. The signal is expressed as counts per second (cps). The IC50 (concentration of test compound causing half-maximal (50%) inhibition of the maximally attainable inhibition of the luciferase stimulation by the compound) and efficacy of the compounds were determined using the software program MathIQ (version 2.3, ID Business Solutions Limited).

| Compound | IC50 |
| --- | --- |
| COc1cc(OCC2CC2)cc(C(=O)NCC2CCN(c3nc(-c4cccc(-n5ccnn5)c4)ncc3F)CC2)c1 [Example 28C, N-((1-(2-(3-(1H-1,2,3-triazol-1-yl)phenyl)-5-fluoropyrimidin-4-yl)piperidin-4-yl)methyl)-3-(cyclopropylmethoxy)-5-methoxybenzamide] | 10 to 100 nM |
| COc1cc(OCc2ccccc2)cc(C(=O)NCC2CCN(c3ncnc(-c4cccc(-c5ccccn5)c4)n3)CC2)c1 [Example 12B, 3-(benzoxy)-5-methoxy-N-((1-(4-(3-(pyridin-2-yl)phenyl)-1,3,5-triazin-2-yl)piperidin-4-yl)methyl)benzamide] | 10 to 100 nM |
| CNC(=O)COc1cc(OC)cc(C(=O)NCC2CCN(c3ncnc(-c4cccc(-n5cccn5)c4)n3)CC2)c1 [Example 17D, N-((1-(4-(3-(1H-pyrazol-1-yl)phenyl)-1,3,5-triazin-2-yl)piperidin-4-yl)methyl)-3-methoxy-5-(2-(methylamino)-2-oxoethoxy)benzamide] | 10 to 100 nM |
| COc1cc(OCC2CC2)cc(C(=O)NCC2CCN(c3nc(-c4cccc(-c5ccn[nH]5)c4)ncc3F)CC2)c1 [Example 19C, N-((1-(2-(3-(1H-pyrazol-5-yl)phenyl)-5-fluoropyrimidin-4-yl)piperidin-4-yl)methyl)-3-(cyclopropylmethoxy)-5-methoxybenzamide] | < 10 nM |
| COc1cc(OCC2CC2)cc(C(=O)NC(C)C2CCN(c3ncnc(-c4cccc(-c5cc[nH]n5)c4)n3)CC2)c1 (stereo not drawn) [Example 37, N-(1-(1-(4-(3-(1H-pyrazol-3-yl)phenyl)-1,3,5-triazin-2-yl)piperidin-4-yl)ethyl)-3-(cyclopropylmethoxy)-5-methoxybenzamide] | < 10 nM |
| COc1cc(OCC2CC2)cc(C(=O)NCC2CCN(c3ccnc(-c4cccc(-n5ncc(C(=O)O)c5C)c4)n3)CC2)c1 [Example 33D, 1-(3-(4-(4-((3-(cyclopropylmethoxy)-5-methoxybenzamido)methyl)piperidin-1-yl)pyrimidin-2-yl)phenyl)-5-methyl-1H-pyrazole-4-carboxylic acid] | 10 to 100 nM |
| COc1cc(OCC(F)(F)F)cc(C(=O)NCC2CCN(c3ncnc(-c4cccc(C#N)c4)n3)CC2)c1 [Example 30D, N-((1-(4-(3-cyanophenyl)-1,3,5-triazin-2-yl)piperidin-4-yl)methyl)-3-methoxy-5-(2,2,2-trifluoroethoxy)benzamide] | < 10 nM |
| COc1cc(OCC2CC2)cc(C(=O)NCC2CCN(c3ncnc(-c4ccc(O)c(C#N)c4)n3)CC2)c1 [Example 34, N-((1-(4-(3-cyano-4-hydroxyphenyl)-1,3,5-triazin-2-yl)piperidin-4-yl)methyl)-3-(cyclopropylmethoxy)-5-methoxybenzamide] | 10 to 100 nM |
| COc1cc(OCC2CC2)cc(C(=O)NCC2CCN(c3ccnc(-c4cccc(C(=O)NC(C)(C)C)c4)n3)CC2)c1 [Example 32F, N-((1-(2-(3-(tert-butylcarbamoyl)phenyl)pyrimidin-4-yl)piperidin-4-yl)methyl)-3-(cyclopropylmethoxy)-5-methoxybenzamide] | 10 to 100 nM |
| COc1cc(NC(=O)C2CCN(c3ccnc(-c4cccc(-n5cccn5)c4)n3)CC2)cc(OCc2cc(C)on2)c1 [Example 43, 1-(2-(3-(1H-pyrazol-1-yl)phenyl)pyrimidin-4-yl)-N-(3-methoxy-5-((5-methylisoxazol-3-yl)methoxy)phenyl)piperidine-4-carboxamide] | < 10 nM |
| COc1cc(OCC2CC2)cc(C(=O)NCC2CCN(c3ccnc(-c4ccc5[nH]ncc5c4)n3)CC2)c1 [Example 19E, N-((1-(2-(1H-indazol-5-yl)pyrimidin-4-yl)piperidin-4-yl)methyl)-3-(cyclopropylmethoxy)-5-methoxybenzamide] | 10 to 100 nM |
| COc1cc(OCC2CC2)cc(C(=O)NCC2CCN(c3ncnc(-c4cccc(-n5cccn5)c4)n3)CC2)c1 [Example 17A, N-((1-(4-(3-(1H-pyrazol-1-yl)phenyl)-1,3,5-triazin-2-yl)piperidin-4-yl)methyl)-3-(cyclopropylmethoxy)-5-methoxybenzamide] | < 10 nM |
